Measured values taken from US20250332173A1, “COMPOUNDS AND METHODS FOR MODULATING NUCLEIC ACID SPLICING” (REMIX THERAPEUTICS INC., priority 2021, published 2025).
pIC50: −log10 of the molar value. Read-outs that look alike come from different tables or passages of the source.

Assays:
[1] = tested on: Target C; test: HiBiT protein abundance assay, Target C (Promega Nano-Glo HiBiT Lytic Detection System, knock-in K562 cell line); assay type: cell-based, human; details: Homo sapiens, K562, 24 h, HiBiT K562 cell line, 24 hours, top dose 10 μM; read-out: Effect on protein abundance, Target C (IC50 category)
Summary of the method: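 Protein abundance was read by Nano-Glo HiBiT lytic luminescence after 24 h compound exposure (10-point, threefold series from 10 μM final) of HiBiT knock-in K562 cells. Parental K562 served as baseline; the 50%-abundance concentration was interpolated from a four-parameter logistic fit.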

[2] = tested on: K562 (human chronic myelogenous leukemia) cells; test: Cell Titer Glo 2.0 cell viability assay; assay type: cell-based; details: Homo sapiens, K562, 72 h, K562 cells, 72 hours, Cell Titer Glo 2.0; read-out: K562 GI50
[3] = tested on: SMN2 mRNA; test: RT-qPCR splicing assay, SMN2 canonical junction (CJ) mRNA; assay type: cell-based, human; details: Homo sapiens
Summary of the method: (§1)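 Canonical-junction transcript levels in compound-treated A673 or K562 cells (24 h, up to 10 uM final) were determined from lysates by RT-qPCR with housekeeping-gene normalization.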

[4] = tested on: Target C; test: RT-qPCR splicing assay panel, Target C canonical junction (CJ) mRNA; assay type: cell-based, human; details: Homo sapiens
Summary of the method: as §1

[5] = canonical junction qPCR panel, Table 5, read-out: SMN2 (decrease in CJ mRNA levels, IC50)
[6] = canonical junction qPCR panel, Table 5, read-out: Target C (decrease in CJ mRNA levels, IC50)
[7] = Table 5 panel, canonical junction qPCR, compound concentration having 50% response in CJ decrease, read-out: SMN2 IC50 (decrease in CJ mRNA levels)
[8] = Table 5 panel, canonical junction qPCR, compound concentration having 50% response in CJ decrease, read-out: Target C IC50 (decrease in CJ mRNA levels)

| Compound | pIC50 [1] | GI50 [2] | pIC50 [3, 5] | pIC50 [4, 6] | pIC50 [3, 7] | pIC50 [4, 8] |
| --- | --- | --- | --- | --- | --- | --- |
| Cc1c(O)c(-c2ncc3c(=O)n([C@@H]4C[C@H]5C[C@@H]4CN5)ccc3n2)cc2cn(C)nc12 (stereo in doubt) [Compound 1446, 6-[(1R,4R,5R)-2-azabicyclo[2.2.1]heptan-5-yl]-2-(6-hydroxy-2,7-dimethyl-indazol-5-yl)pyrido[4,3-d]pyrimidin-5-one] | < 5.00 | 0.1 to 1 µM | 6.00 to 7.00 | < 5.00 | – | – |
| Cc1c(O)c(-c2ccc3c(=O)n(C4CC(C)NC(C)C4)ccc3n2)cc2cn(C)nc12 (stereo not drawn) [Compound 1447, 6-(2,6-dimethyl-4-piperidyl)-2-(6-hydroxy-2,7-dimethyl-indazol-5-yl)-1,6-naphthyridin-5-one] | 6.00 to 7.00 | 0.1 to 1 µM | > 7.00 | 5.00 to 6.00 | – | – |
| Cc1cn2cc(-c3ccc4c(=O)n(C5CCNCC5)ccc4n3)nc(C)c2n1 [Compound 1238, 2-(2,8-dimethylimidazo[1,2-a]pyrazin-6-yl)-6-(piperidin-4-yl)-1,6-naphthyridin-5(6H)-one] | < 5.00 | > 10 µM | 5.00 to 6.00 | < 5.00 | – | – |
| Cc1cn2cc(-c3cc4ccn(C5CCNCC5)c(=O)c4cn3)cc(F)c2n1 [Compound 1196] | 6.00 to 7.00 | 0.1 to 1 µM | – | – | > 7.00 | 6.00 to 7.00 |
| Cc1cn(C2CCNCC2)c(=O)c2ccc(-c3cc4cn(C)nc4c(F)c3O)nc12 [Compound 1285] | > 7.00 | < 0.1 µM | > 7.00 | > 7.00 | – | – |
| Cc1cn2nc(-c3ccc4c(=O)n([C@H]5CCNC5)ccc4n3)cc(C)c2n1 [Compound 1437, 2-(2,8-dimethylimidazo[1,2-b]pyridazin-6-yl)-6-[(3S)-pyrrolidin-3-yl]-1,6-aphthyridin-5-one] | 5.00 to 6.00 | 1 to 10 µM | > 7.00 | 5.00 to 6.00 | – | – |
| Cn1cc2cc(-c3ncc4c(=O)n(C5CCNCC5)ccc4n3)cc(F)c2n1 [Compound 1212, 2-(7-fluoro-2-methyl-2H-indazol-5-yl)-6-(piperidin-4-yl)pyrido[4,3-d]pyrimidin-5(6H)-one] | 6.00 to 7.00 | 0.1 to 1 µM | – | – | > 7.00 | 6.00 to 7.00 |
| Cn1cc2cc(-c3ccc4c(=O)n(C5CCNCC5)cnc4c3)ccc2n1 [Compound 182] | 5.00 to 6.00 | 0.1 to 1 µM | – | – | > 7.00 | 5.00 to 6.00 |
| COc1c(-c2cc3ccn(C4CCNCC4)c(=O)c3cn2)cc2cn(C)nc2c1F [Compound 1219] | 5.00 to 6.00 | 1 to 10 µM | – | – | 6.00 to 7.00 | < 5.00 |
| Cc1cn2cc(-c3ncc4c(=O)n([C@@H]5CCNC6(CC6)C5)ccc4n3)cc(F)c2n1 [Compound 1457, 6-[(7R)-4-azaspiro[2.5]octan-7-yl]-2-(8-fluoro-2-methyl-imidazo[1,2-a]pyridin-6-yl)pyrido[4,3-d]pyrimidin-5-one] | 5.00 to 6.00 | 0.1 to 1 µM | > 7.00 | 5.00 to 6.00 | – | – |
| Cn1cc2nc(-c3ccc4c(=O)n(C5CCNCC5)ccc4n3)c(O)cc2n1 [Compound 1296] | 6.00 to 7.00 | 0.1 to 1 µM | > 7.00 | 6.00 to 7.00 | – | – |
| Cc1c(O)c(-c2ncc3c(=O)n([C@@H]4CC5CC4CN5)ccc3n2)cc2cn(C)nc12 (stereo in doubt) [Compound 1443, 6-[(1R,4R,5R)-2-azabicyclo[2.2.1]heptan-5-yl]-2-(6-hydroxy-2,7-dimethyl-indazol-5-yl)pyrido[4,3-d]pyrimidin-5-one] | 5.00 to 6.00 | 0.1 to 1 µM | > 7.00 | 5.00 to 6.00 | – | – |
| Cn1cc2cc(-c3ccc4c(=O)n([C@@H]5CCNC5)ccc4n3)c(O)c(F)c2n1 [Compound 1452, 2-(7-fluoro-6-hydroxy-2-methyl-indazol-5-yl)-6-[(3R)-pyrrolidin-3-yl]-1,6-naphthyridin-5-one] | 6.00 to 7.00 | 0.1 to 1 µM | > 7.00 | 6.00 to 7.00 | – | – |
| Cc1cn2cc(-c3ccc4c(=O)n(C5CCNC5)ccc4n3)cc(F)c2n1 (stereo not drawn) [Compound 1299] | < 5.00 | 1 to 10 µM | 6.00 to 7.00 | < 5.00 | – | – |
| Cc1c(O)c(-c2ncc3c(=O)n([C@H]4CCNC(C)(C)C4)ccc3n2)cc2cn(C)nc12 [Compound 1436] | 6.00 to 7.00 | < 0.1 µM | > 7.00 | 5.00 to 6.00 | – | – |
| Cc1cn2cc(-c3ncc4c(=O)n(C5CCNCC5)ccc4n3)c(O)c(C)c2n1 [Compound 1225] | 6.00 to 7.00 | 0.1 to 1 µM | – | – | > 7.00 | 6.00 to 7.00 |
| Cc1c(O)c(-c2ncc3c(=O)n(C4C[C@@H](C)N[C@H](C)C4)ccc3n2)cc2cn(C)nc12 (stereo partly drawn) [Compound 1454, 6-[(2R,6R)-2,6-dimethyl-4-piperidyl]-2-(6-hydroxy-2,7-dimethyl-indazol-5-yl)pyrido[4,3-d]pyrimidin-5-one] | 5.00 to 6.00 | 0.1 to 1 µM | > 7.00 | 5.00 to 6.00 | – | – |
| Cc1cn2cc(-c3ccc4c(=O)n(C5CCNCC5)ccc4n3)cc(C)c2n1 [Compound 1241, 2-(2,8-dimethylimidazo[1,2-a]pyridin-6-yl)-6-(piperidin-4-yl)-1,6-naphthyridin-5(6H)-one] | > 7.00 | < 0.1 µM | > 7.00 | 5.00 to 6.00 | – | – |
| Cc1cn2cc(-c3cc(F)c4c(=O)n([C@@H]5CNC[C@H]5F)ccc4c3)cc(F)c2n1 [Compound 1456] | < 5.00 | 1 to 10 µM | 6.00 to 7.00 | < 5.00 | – | – |
| Cn1cc2cc(-c3ccc4c(=O)n([C@H]5CCNC5)ccc4n3)c(O)c(F)c2n1 [Compound 1451, 2-(7-fluoro-6-hydroxy-2-methyl-indazol-5-yl)-6-[(3S)-pyrrolidin-3-yl]-1,6-naphthyridin-5-one] | 6.00 to 7.00 | 0.1 to 1 µM | > 7.00 | 6.00 to 7.00 | – | – |
| Cc1c(O)c(-c2ncc3c(=O)n(C4C[C@H](C)N[C@@H](C)C4)ccc3n2)cc2cn(C)nc12 (stereo partly drawn) [Compound 1455, 6-[(2S,6S)-2,6-dimethyl-4-piperidyl]-2-(6-hydroxy-2,7-dimethyl-indazol-5-yl)pyrido[4,3-d]pyrimidin-5-one] | 6.00 to 7.00 | < 0.1 µM | > 7.00 | 5.00 to 6.00 | – | – |
| Cc1c(O)c(-c2ncc3c(=O)n(C4CCC(N)CC4)ccc3n2)cc2cn(C)nc12 (stereo not drawn) [Compound 1300, 6-((1s,4s)-4-aminocyclohexyl)-2-(6-hydroxy-2,7-dimethyl-2H-indazol-5-yl)pyrido[4,3-d]pyrimidin-5(6H)-one] | 5.00 to 6.00 | 0.1 to 1 µM | > 7.00 | 5.00 to 6.00 | – | – |
| Cc1c(O)c(-c2ncc3c(=O)n([C@@H]4C[C@H]5CC[C@@H](C4)N5)ccc3n2)cc2cn(C)nc12 [Compound 1429, 6-[(1S,5R)-8-azabicyclo[3.2.1]octan-3-yl]-2-(6-hydroxy-2,7-dimethyl-indazol-5-yl)pyrido[4,3-d]pyrimidin-5-one] | 6.00 to 7.00 | 0.1 to 1 µM | > 7.00 | 5.00 to 6.00 | – | – |
| Cn1cc2cc(-c3ccc4c(=O)n(C5CCNC6(CC6)C5)ccc4n3)c(O)cc2n1 (stereo not drawn) [Compound 1242] | > 7.00 | < 0.1 µM | > 7.00 | 6.00 to 7.00 | – | – |
| Cc1cn2nc(-c3ccc4c(c3F)CCN(C3CCNCC3)C4=O)cc(C)c2n1 [Compound 188] | 5.00 to 6.00 | 1 to 10 µM | – | – | > 7.00 | 5.00 to 6.00 |
| Cc1cc(-c2cc3ccn(C4CCNCC4)c(=O)c3cn2)cc2cn(C)nc12 [Compound 1204, 6-(2,7-dimethyl-2H-indazol-5-yl)-2-(piperidin-4-yl)-2,7-naphthyridin-1(2H)-one] | 5.00 to 6.00 | 0.1 to 1 µM | – | – | > 7.00 | 5.00 to 6.00 |
| Cc1cn2cc(-c3ncc4c(=O)n(C5CCNCC5)ccc4n3)cc(C#N)c2n1 [Compound 1301] | 6.00 to 7.00 | 0.1 to 1 µM | > 7.00 | 5.00 to 6.00 | – | – |
| Cc1cn2cc(-c3ncc4c(=O)n(C5CCNC5)ccc4n3)c(O)c(C)c2n1 (stereo not drawn) [Compound 1227] | < 5.00 | 1 to 10 µM | – | – | 6.00 to 7.00 | < 5.00 |
| Cc1cc(-c2cc3ccn(C4CCN(C5CC5)CC4)c(=O)c3cn2)cc2cn(C)nc12 [Compound 1208, 2-(1-cyclopropylpiperidin-4-yl)-6-(2,7-dimethyl-2H-indazol-5-yl)-2,7-naphthyridin-1(2H)-one] | < 5.00 | > 10 µM | – | – | 6.00 to 7.00 | < 5.00 |
| Cc1c(O)c(-c2ncc3c(=O)n([C@H]4C[C@H](N)C4)ccc3n2)cc2cn(C)nc12 [Compound 1432, 6-((1r,3r)-3-aminocyclobutyl)-2-(6-hydroxy-2,7-dimethyl-2H-indazol-5-yl)pyrido[4,3-d]pyrimidin-5(6H)-one] | 5.00 to 6.00 | 0.1 to 1 µM | > 7.00 | 5.00 to 6.00 | – | – |
